# Key:
# Type in all cases: cell-based
# [1] = test system: Coniophora puteana; assay: radial mycelial growth on fungicide amended agar; conditions: estimated from graph of % activity (radial mycelial growth relative to agar without fungicide) against concentration
# Protocol: Stem cultures of Coniophora puteana were produced by propagating the fungus on a growth medium comprising yeast extract (10 g), glycerol (20 ml), magnesium sulphate (0.5 g), sodium nitrate (6.0 g), potassium chloride (0.5 g), potassium dihydrogen orthophosphate (1.5 g), agar (20 g) in distilled water (980 ml).
# Fungicides were added at levels of 5000, 100, 10, 1, 0.1 and 0.01 mg fungicide/litre of growth medium (described above) to give […] different growth medium compositions for each fungicide. Mycelial plugs were taken from the stem cultures and transferred upside down onto petri dishes containing the fungicide amended agar.
# The radial mycelial growth of the fungus was measured individually on all test petri dishes. The results are expressed as % activity relative to the radial growth on agar without fungicide.
# For each fungicide, a graph was drawn of percentage activity against concentration of fungicide in the growth medium. From this graph, the concentrations of fungicide required to achieve 80% activity was estimated. These figures are given in the results table.
# [2] = test system: Aspergillus versicolor (DSM 1943); assay: Example 3 liquid culture assay on 24 well plates, solo and 2-way mixtures; conditions: test 006-2005
# Source text: (§1) Alternaria tenuissima (DSM 63360), Penicillium chrysogenum (DSM 895), Stachybotrys chartarum (DSM2144), Aspergillus niger (DSM 63263), Aspergillus versicolor (DSM 1943) and Aureobasidium pullulans (ATCC 15233) were separately cultivated on PDA media to […] sporulation. Spore suspensions were produced for each fungi. Spore concentrations of approx. 100.000 spores/ml were used.
# (§2) Test method used: liquid culture assay on 24 well plates.
# (§3) For solo (i.e. single) ai testing the formulated fungicide (100 ul) was filled into the 24 well plates and 100 ul distilled water was added. Afterwards 800 ul of 0.3% AE media was added to the plate. The spore suspension of the specific fungi was added to this media in advance containing approx. 100,000 spores/ml. The 24 well plates were sealed and incubated at 24° C.
# (§4) Dependent on the growth properties of each organisms, the evaluation was done after 3 to 6 days, when the surface of the check well was covered with mycelium. The evaluation was performed by assessing the growth of the fungi related to the check growth. The results are expressed as % activity relative to the check (values of 0-100% growth). Afterwards the results were converted in % O growth inhibition.
# (§5) For synergism testing of the 2-way mixtures 100 ul of each fungicide were filled into 24 well plates and 800 ul of 0.3% AE media containing the spore suspension was added. Different ratios of the 2 fungicide rates were tested at the same time.
# (§6) For the mixtures of different fungicides the synergism was calculated based on the Colby equation, which is described below: […]
# (§7) The fungicidal action to be expected, We, for a given combination of two fungicides can be calculated as follows (see COLBY, S. R. “Calculating synergistic and antagonistic response of herbicide combinations”. Weeds 15, pages 20-22; 1967): We=X+[Y×(100−X)/100] wherein: • X=% activity in the case of treatment with the compound of formula I at rate x, in comparison with untreated control (=0%). • Y=% activity in the case of treatment with a compound of formula II at rate y, in comparison with untreated control. • We=expected activity (% activity in comparison with untreated control) after treatment with the compound of formula I and a compound of formula II at a rate of x+y kg of active ingredient.
# (§8) If the activity actually observed is greater than the expected value We (factor observed activity/expected activity >1.2), there is a synergistic effect.
# [3] = test system: Aspergillus niger (DSM 63263); assay: as above; conditions: test 006-2005; rate (AZO) 0.05 mg ai/l
# Source text: as §1, §2, §3, §4, §5, §6, §7, §8
# [4] = test system: Stachybotrys chartarum (DSM2144); assay: as above; conditions: test 006-2005; rate (AZO) 0.8 mg ai/l
# Source text: as §1, §2, §3, §4, §5, §6, §7, §8
# [5] = test system: Penicillium chrysogenum (DSM 895); assay: as above; conditions: test 006-2005
# Source text: as §1, §2, §3, §4, §5, §6, §7, §8
# [6] = test system: Alternaria tenuissima (DSM 63360); assay: as above
# Source text: as §1, §2, §3, §4, §5, §6, §7, §8
# [7] = test system: Alternaria tenuissima (DSM 63360); assay: Example 4 liquid culture assay on 24 and 48 well plates, 3 way mixtures; conditions: A. tenuissima
# Source text: (§9) For test 006-2005: Alternaria tenuissima (DSM 63360), Penicillium chrysogenum (DSM 895), Cladosporium cladosporoides (DSM62121), Aspergillus niger (DSM 63263), Aspergillus versicolor (DSM 1943) and Aureobasidium pullulans (ATCC 15233) were separately cultivated on PDA media to […] sporulation. Spore suspensions were produced for each fungus. Spore concentrations of approx. 100,000 spores/ml were used.
# […] Spore suspensions were produced for each fungus. Spore concentrations of approx. 100,000 spores/ml were used.
# (§10) Test method used: liquid culture assay on 24 and 48 well plates respectively.
# (§11) For testing of the 3 way mixtures each of the formulated fungicide (100 ul) was filled into the 24 and 48 well plates respectively. Afterwards 700 ul of 0.3% AE media was added to the plate. The spore suspension of the specific fungi was added to this media in advance containing approx. 100,000 spores/ml. For testing the solo compounds the equivalent of distilled water was added instead of the formulated fungicide volume of the mixing partners. The plates were then sealed and incubated at 24° C.
# (§12) Dependent on the growth properties of each organisms, the evaluation was done after 3 to 6 days, when the surface of the check well was covered with mycelium. The evaluation was performed by assessing the growth of the fungi related to the check growth. The results are expressed as % activity relative to the check (values of 0-100% growth). Afterwards the results were converted in % growth inhibition.
# (§13) For the mixtures of different fungicides the synergism was calculated based on the Colby equation, which is described above.
# [8] = test system: Aspergillus versicolor (DSM 1943); assay: as above; conditions: test 006-2005, A. versicolor
# Source text: as §9, §10, §11, §12, §13
smiles,measurement,setting,value
CO/C=C(/C(=O)OC)c1ccccc1Oc1cc(Oc2ccccc2C#N)ncn1 [Azoxystrobin],Concentration required for 80% Activity,[1],0.38 mg/L
same,inh % (AZO alone),[2]; rate (AZO) 0.8 mg ai/l,30%
same,inh % (AZO alone),[2]; rate (AZO) 1.6 mg ai/l,30%
same,inh % (AZO alone),[3],10%
same,inh % (AZO alone),[4],10%
same,inh % (AZO alone),[5]; rate (AZO) 0.05 mg ai/l,10%
same,inh % (AZO alone),[5]; rate (AZO) 0.2 mg ai/l,0%
same,inh % (AZO alone),[5]; rate (AZO) 0.8 mg ai/l,10%
same,inh % (AZO alone),[5]; rate (AZO) 1.6 mg ai/l,10%
same,inh % (AZO alone),[5]; rate (AZO) 3.12 mg ai/l,10%
same,inh % (AZO alone),[5]; rate (AZO) 12.5 mg ai/l,10%
same,inh % (AZO alone),[5]; rate (AZO) 50 mg ai/l,10%
same,inh % (AZO alone),[5]; rate (AZO) 100 mg ai/l,10%
same,inh % (AZO alone),"[6]; test 006-2005, rate (AZO) 0.05 mg ai/l",10%
same,inh % (AZO alone),"[6]; test 006-2005, rate (AZO) 0.2 mg ai/l",10%
same,inh % (AZO alone),"[6]; test 006-2005, rate (AZO) 0.8 mg ai/l",10%
same,inh % (AZO alone),"[6]; test 006-2005, rate (AZO) 100 mg ai/l",30%
same,inh % (AZO alone),"[6]; test 015-2005, rate (AZO) 0.4 mg ai/l",10%
same,inh % (AZO alone),"[6]; test 015-2005, rate (AZO) 0.8 mg ai/l",10%
same,inh % (AZO alone),"[6]; test 015-2005, rate (AZO) 1.6 mg ai/l",10%
same,inh % (AZO alone),"[6]; test 015-2005, rate (AZO) 3.1 mg ai/l",10%
same,inh % (AZO alone),"[6]; test 015-2005, rate (AZO) 6.25 mg ai/l",10%
same,inh % (AZO alone),"[7]; test 006-2005, AZO 0.05 mg ai/l",10%
same,inh % (AZO alone),"[7]; test 006-2005, AZO 0.2 mg ai/l",10%
same,inh % (AZO alone),"[7]; test 006-2005, AZO 0.8 mg ai/l",10%
same,inh % (AZO alone),"[7]; test 006-2005, AZO 1.6 mg ai/l",10%
same,inh % (AZO alone),"[7]; test 006-2005, AZO 3.12 mg ai/l",10%
same,inh % (AZO alone),"[7]; test 006-2005, AZO 12.5 mg ai/l",10%
same,inh % (AZO alone),"[7]; test 006-2005, AZO 50 mg ai/l",10%
same,inh % (AZO alone),"[7]; test 006-2005, AZO 100 mg ai/l",10%
same,inh % (AZO alone),"[7]; test 015-2005, AZO 0.05 mg ai/l",10%
same,inh % (AZO alone),"[7]; test 015-2005, AZO 0.2 mg ai/l",10%
same,inh % (AZO alone),[8]; AZO 0.05 mg ai/l,10%
same,inh % (AZO alone),[8]; AZO 0.2 mg ai/l,30%
same,inh % (AZO alone),[8]; AZO 0.8 mg ai/l,30%
same,inh % (AZO alone),[8]; AZO 1.6 mg ai/l,30%
same,inh % (AZO alone),[8]; AZO 3.12 mg ai/l,30%
same,inh % (AZO alone),[8]; AZO 12.5 mg ai/l,30%
same,inh % (AZO alone),[8]; AZO 50 mg ai/l,30%
same,inh % (AZO alone),[8]; AZO 100 mg ai/l,30%

# Source: patent publication US8138196B2, “Antifungal wallboards and building materials and methods for the production thereof” (Syngenta Crop Protection, Inc., priority 2005, dated 2012)
